From patent publication US20100022491A1, “4-HYDROXY-2-OXO-2,3-DIHYDRO-1,3-BENZOTHIAZOL-7YL COMPOUNDS FOR MODULATION OF B2-ADRENORECEPTOR ACTIVITY” (ASTRAZENECA AB, priority 2006, published 2010)
Counter-ions that a name gives are not always drawn.

How the values were obtained:
[1] = target: T1, recombinant human adrenergic beta 1 receptors (Homo sapiens, UniProt P08588); assay: Adrenergic β1 selectivity binding assay ([125I]-Iodocyanopindolol); details: inhibition of [125I]-Iodocyanopindolol (0.036 nM) binding; read-out: β1 bind p IC50 (converted)
T1 construct: purchased Euroscreen
How it was run: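 Recombinant human β1 membranes in HEPES buffer pH 7.4 with 120 mM NaCl were incubated 2 hours at room temperature with 0.036 nM [^125I]-Iodocyanopindolol. Nonspecific binding defined by 10 μM propranolol; bound radioactivity counted after filtration. pIC50 from four-parameter logistic fit.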

Adrenergic β2 = target: T2, Adrenergic β2 (Homo sapiens, UniProt P07550); assay: Adrenergic β2 mediated cAMP production in H292 cells; assay type: cell-based; details: for EC50: H292 cells, cAMP by AlphaScreen, 60 minutes at room temperature, rolipram 300 μM, read-out: β2 pEC50 (converted); for β2 Int Act: Intrinsic Activity as a fraction relative to the maximum activity determined for formoterol
T2 construct: Adherent H292 cells were removed from tissue culture flasks; endogenous in cells; host or cells: H292 cells
How it was run: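 H292 cells pretreated 10 min with rolipram (300 μM final), then exposed to agonist 60 min at room temperature in HEPES-buffered HBSS, 1.6% DMSO final. Lysate cAMP quantified by AlphaScreen against a cAMP standard curve; four-parameter fit gives pEC50 and intrinsic activity relative to formoterol maximum.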

[2] = target: T3, recombinant human Dopamine Subtype D2s receptors (Homo sapiens, UniProt P14416); assay: Dopamine D2 selectivity binding assay ([3H]-spiperone); details: inhibition of [3H]-spiperone (0.16 nM) binding; read-out: D2 bind pIC50 (converted)
T3 construct: purchased Perkin Elmer
How it was run: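 Recombinant human D2s membranes incubated 2 h at room temperature with 0.16 nM [3H]-spiperone in HEPES/EDTA/NaCl/gelatin buffer, pH 7.4; 10 μM haloperidol defined non-specific binding. Filter-bound radioactivity counted after cold washes. pIC50 from 4-parameter logistic fit of NSB-corrected specific binding.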

T1 sequence (P08588 whole entry): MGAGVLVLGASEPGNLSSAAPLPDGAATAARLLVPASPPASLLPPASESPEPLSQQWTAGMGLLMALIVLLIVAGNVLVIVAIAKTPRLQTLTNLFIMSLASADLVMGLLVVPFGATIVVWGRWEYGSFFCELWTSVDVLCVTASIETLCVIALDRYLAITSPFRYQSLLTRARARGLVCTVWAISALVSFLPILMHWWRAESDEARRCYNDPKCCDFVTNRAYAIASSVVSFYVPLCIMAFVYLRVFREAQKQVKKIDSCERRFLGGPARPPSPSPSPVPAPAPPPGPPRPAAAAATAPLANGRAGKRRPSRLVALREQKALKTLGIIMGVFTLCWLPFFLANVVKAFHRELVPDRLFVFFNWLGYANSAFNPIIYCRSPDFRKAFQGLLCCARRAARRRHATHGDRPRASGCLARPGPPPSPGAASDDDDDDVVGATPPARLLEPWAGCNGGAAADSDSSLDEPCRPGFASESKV
T2 sequence (P07550 whole entry): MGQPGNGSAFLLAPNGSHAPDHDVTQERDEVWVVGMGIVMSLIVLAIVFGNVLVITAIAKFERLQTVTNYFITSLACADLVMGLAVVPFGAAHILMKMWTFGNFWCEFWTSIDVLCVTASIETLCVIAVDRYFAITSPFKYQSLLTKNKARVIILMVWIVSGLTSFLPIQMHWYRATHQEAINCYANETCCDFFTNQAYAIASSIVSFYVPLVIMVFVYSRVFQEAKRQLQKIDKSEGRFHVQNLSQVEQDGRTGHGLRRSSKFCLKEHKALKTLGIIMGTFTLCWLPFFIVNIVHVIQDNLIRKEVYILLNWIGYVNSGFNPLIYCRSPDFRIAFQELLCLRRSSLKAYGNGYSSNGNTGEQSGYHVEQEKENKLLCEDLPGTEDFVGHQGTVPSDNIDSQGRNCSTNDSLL
T3 sequence (P14416 1-414 isoform P14416-2): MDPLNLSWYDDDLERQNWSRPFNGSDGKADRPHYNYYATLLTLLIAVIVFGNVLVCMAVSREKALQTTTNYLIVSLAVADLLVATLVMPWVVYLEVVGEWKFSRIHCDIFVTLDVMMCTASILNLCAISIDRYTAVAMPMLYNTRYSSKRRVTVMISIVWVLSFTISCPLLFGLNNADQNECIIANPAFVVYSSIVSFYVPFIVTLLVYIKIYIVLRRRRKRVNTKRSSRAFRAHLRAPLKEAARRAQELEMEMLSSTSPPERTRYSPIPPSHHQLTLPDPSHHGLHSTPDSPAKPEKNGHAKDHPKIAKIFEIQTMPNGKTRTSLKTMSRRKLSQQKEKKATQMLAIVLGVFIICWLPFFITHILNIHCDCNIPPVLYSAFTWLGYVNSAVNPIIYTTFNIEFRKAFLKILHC

SMILES | IC50 [1] [µM] | EC50 (Adrenergic β2) [µM] | β2 Int Act (Adrenergic β2) | IC50 [2] [µM]
CC(C)(C)CN(CCNCCc1ccc(O)c2[nH]c(=O)sc12)C(=O)CCNCCc1cccc(F)c1 [Example 44, N^1-(2,2-Dimethylpropyl)-N^3-[2-(3-fluorophenyl)ethyl]-N^1-(2-{[2-(4-hydroxy-2-oxo-2,3-dihydro-1,3-benzothiazol-7-yl)ethyl]amino}ethyl)-β-alaninamide bis-trifluoroacetic acid salt] | 5.01 | 0.00631 | 0.73 | 0.126
O=C(CCNCCc1ccc2c(c1)OCO2)N(CCNCCc1ccc(O)c2[nH]c(=O)sc12)C1CCCCC1 [Example 76, N^3-[2-(1,3-Benzodioxol-5-yl)ethyl]-N^1-cyclohexyl-N^1-(2-{[2-(4-hydroxy-2-oxo-2,3-dihydro-1,3-benzothiazol-7-yl)ethyl]amino}ethyl)-β-alaninamide bis-trifluoroacetic acid salt] | 3.98 | 0.00631 | 0.68 | 0.2
O=C(CCNCCc1cccc(Cl)c1)N(CCNCCc1ccc(O)c2[nH]c(=O)sc12)C1Cc2ccccc2C1 [Example 42, N^3-[2-(3-Chlorophenyl)ethyl]-N^1-(2,3-dihydro-1H-inden-2-yl)-N^1-(2-{[2-(4-hydroxy-2-oxo-2,3-dihydro-1,3-benzothiazol-7-yl)ethyl]amino}ethyl)-β-alaninamide bis-trifluoroacetic acid salt] | 1.26 | 0.0158 | 0.82 | 0.1
O=C(CCNCCc1cccc(C(F)(F)F)c1)N(CCNCCc1ccc(O)c2[nH]c(=O)sc12)C1CCCCCC1 [Example 82, N^1-Cycloheptyl-N^1-(2-{[2-(4-hydroxy-2-oxo-2,3-dihydro-1,3-benzothiazol-7-yl)ethyl]amino}ethyl)-N^3-{2-[3-(trifluoromethyl)phenyl]ethyl}-β-alaninamide bis-trifluoroacetic acid salt] | 2.51 | 0.0794 | 0.86 | 0.0501

More lines, now with the values ahead:

IC50 [1] [µM] | EC50 (Adrenergic β2) [µM] | β2 Int Act (Adrenergic β2) | IC50 [2] [µM] | SMILES
2.51 | 0.00501 | 0.59 | 0.0251 | O=C(CCNCCc1ccc(Cl)cc1)N(CCNCCc1ccc(O)c2[nH]c(=O)sc12)C1CCCCCC1 [Example 51, N^3-[2-(4-Chlorophenyl)ethyl]-N^1-cycloheptyl-N^1-(2-{[2-(4-hydroxy-2-oxo-2,3-dihydro-1,3-benzothiazol-7-yl)ethyl]amino}ethyl)-β-alaninamide bis-trifluoroacetic acid salt]
5.01 | 0.00794 | 0.65 | 0.251 | CC(C)(C)CN(CCNCCc1ccc(O)c2[nH]c(=O)sc12)C(=O)CCNCCc1ccc(Cl)c(Cl)c1 [Example 9, N^3-[2-(3,4-Dichlorophenyl)ethyl]-N-(2,2-dimethylpropyl)-N-(2-{[2-(4-hydroxy-2-oxo-2,3-dihydro-1,3-benzothiazol-7-yl)ethyl]amino}ethyl)-β-alaninamide bis-trifluoroacetic acid salt]
3.16 | 0.00398 | 0.97 | 0.251 | O=C(CCNCCc1ccccc1Cl)N(CCNCCc1ccc(O)c2[nH]c(=O)sc12)C1CCCC1 [Example 29, N^3-[2-(2-Chlorophenyl)ethyl]-N-cyclopentyl-N-(2-{[2-(4-hydroxy-2-oxo-2,3-dihydro-1,3-benzothiazol-7-yl)ethyl]amino}ethyl)-β-alaninamide bis-trifluoroacetic acid salt]
3.98 | 0.000398 | 0.97 | 0.1 | O=C(CCNCCc1cccc(O)c1)N(CCNCCc1ccc(O)c2[nH]c(=O)sc12)C1CCCCC1 [Example 71, N^1-Cyclohexyl-N^1-(2-{[2-(4-hydroxy-2-oxo-2,3-dihydro-1,3-benzothiazol-7-yl)ethyl]amino}ethyl)-N^3-[2-(3-hydroxyphenyl)ethyl]-β-alaninamide bis-trifluoroacetic acid salt]
